Measurements: ChEMBL document CHEMBL5038576 (J Med Chem, 2021)

Experiments:
Adenosine receptor A1 = biological target: T1, Adenosine receptor A1 (Homo sapiens, UniProt P30542)
T1 sequence (P30542 whole entry): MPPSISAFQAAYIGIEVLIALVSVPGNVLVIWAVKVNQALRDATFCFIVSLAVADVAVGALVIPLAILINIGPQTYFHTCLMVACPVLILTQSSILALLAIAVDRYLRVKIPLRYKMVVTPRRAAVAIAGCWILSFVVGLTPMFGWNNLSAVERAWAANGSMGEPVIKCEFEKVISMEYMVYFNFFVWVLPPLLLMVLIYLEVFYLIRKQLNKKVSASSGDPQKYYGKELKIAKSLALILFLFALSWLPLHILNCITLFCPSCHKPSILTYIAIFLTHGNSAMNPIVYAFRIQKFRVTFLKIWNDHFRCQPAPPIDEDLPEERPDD

[1] = biological target: T2, Adenosine receptor A2b (Homo sapiens) (UniProt P29275); experiment: Displacement of [3H]PSB-603 from human A2B receptor expressed in CHO cell membranes at 1 uM measured after 3 hrs by radioligand binding assay relative to control; details: Membrane
T2 sequence (whole entry): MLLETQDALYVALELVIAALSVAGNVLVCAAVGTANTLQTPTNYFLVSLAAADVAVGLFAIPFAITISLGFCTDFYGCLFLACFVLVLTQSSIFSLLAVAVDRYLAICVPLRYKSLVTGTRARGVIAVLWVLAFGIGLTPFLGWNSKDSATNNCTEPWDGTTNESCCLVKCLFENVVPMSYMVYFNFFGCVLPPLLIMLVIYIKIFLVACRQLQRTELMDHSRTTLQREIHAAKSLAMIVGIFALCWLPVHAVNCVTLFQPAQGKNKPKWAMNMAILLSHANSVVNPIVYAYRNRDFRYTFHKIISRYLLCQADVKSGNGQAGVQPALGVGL

Adenosine receptor A3 = biological target: T3, Adenosine receptor A3 (Homo sapiens, UniProt P0DMS8)
T3 sequence (P0DMS8 whole entry): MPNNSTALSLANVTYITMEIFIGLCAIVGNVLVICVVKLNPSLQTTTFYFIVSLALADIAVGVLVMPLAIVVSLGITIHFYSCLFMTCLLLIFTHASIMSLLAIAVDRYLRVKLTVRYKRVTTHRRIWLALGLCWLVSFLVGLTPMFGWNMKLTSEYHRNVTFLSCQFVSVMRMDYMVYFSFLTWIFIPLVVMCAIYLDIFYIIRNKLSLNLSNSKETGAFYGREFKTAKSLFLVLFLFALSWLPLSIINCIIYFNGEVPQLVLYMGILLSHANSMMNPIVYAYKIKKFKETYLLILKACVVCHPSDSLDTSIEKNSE
Description: Displacement of [3H]PSB-11 from human A3 receptor expressed in CHO cell membranes measured after 3 hrs by radioligand binding assay

[2] = biological target: T4, Adenosine receptor A1 (Homo sapiens) (UniProt P30542); experiment: Displacement of [3H]DPCPX from human A1 receptor expressed in CHO cell membranes at 10 uM measured after 3 hrs by radioligand binding assay relative to control; details: Membrane
T4 sequence (whole entry): T1 sequence (P30542 whole entry)

[3] = biological target: T5, Adenosine receptor A3 (Homo sapiens) (UniProt P0DMS8); experiment: Displacement of [3H]PSB-11 from human A3 receptor expressed in CHO cell membranes at 10 uM measured after 3 hrs by radioligand binding assay relative to control; details: Membrane
T5 sequence (whole entry): T3 sequence (P0DMS8 whole entry)

Adenosine receptor A2a [4] = biological target: T6, Adenosine receptor A2a (Homo sapiens, UniProt P29274); experiment: Displacement of [3H]ZM241385 from human A2A receptor expressed in HEK293 cell membranes at 10 uM measured after 3 hrs by radioligand binding assay relative to control; details: Membrane
Adenosine receptor A2b = biological target: T7, Adenosine receptor A2b (Homo sapiens, UniProt P29275)
T7 sequence (P29275 whole entry): T2 sequence (whole entry)

Adenosine receptor A2a [5] = biological target: T6, Adenosine receptor A2a
Description: Displacement of [3H]ZM241385 from human A2A receptor expressed in HEK293 cell membranes measured after 3 hrs by radioligand binding assay

Adenosine receptor A2a [6] = biological target: T6, Adenosine receptor A2a; remark: listed apart in the source

T6 sequence (P29274 whole entry): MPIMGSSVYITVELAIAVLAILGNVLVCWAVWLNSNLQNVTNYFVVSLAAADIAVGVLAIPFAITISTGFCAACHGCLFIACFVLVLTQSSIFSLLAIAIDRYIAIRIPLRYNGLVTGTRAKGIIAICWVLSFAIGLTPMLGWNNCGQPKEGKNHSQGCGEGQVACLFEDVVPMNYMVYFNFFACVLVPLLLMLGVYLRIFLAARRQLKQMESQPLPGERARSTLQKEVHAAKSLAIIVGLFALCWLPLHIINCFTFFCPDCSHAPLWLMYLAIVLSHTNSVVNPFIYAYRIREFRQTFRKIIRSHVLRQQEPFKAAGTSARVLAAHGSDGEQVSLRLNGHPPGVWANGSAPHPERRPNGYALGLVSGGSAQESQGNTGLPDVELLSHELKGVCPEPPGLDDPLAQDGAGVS

**Q.** How did the Ki (Adenosine receptor A1) turn out when `N#Cc1c(-c2ccccc2)cc(N)nc1SCc1ncc[nH]1` was run?
**A.** 112 nM

**Q.** What about the Activity [1] of the same compound?
**A.** 37%

**Q.** For `N#Cc1c(N)nc(SCc2ncc[nH]2)nc1-c1ccccc1`, which Ki (Adenosine receptor A3) is on record?
**A.** 347 nM

**Q.** And the Ki (Adenosine receptor A1)?
**A.** 85.1 nM

**Q.** And the Activity ([1]; filed as partial agonist)?
**A.** 51%

**Q.** With `Nc1cc(-c2ccccc2)cc(SCc2ncc[nH]2)n1` as the compound, how does the Activity [2] read?
**A.** 12%

**Q.** What about the Activity [3] of the same compound?
**A.** 46%

**Q.** And the Activity (Adenosine receptor A2a [4])?
**A.** -17%

**Q.** And the Activity [1]?
**A.** -12%

**Q.** How did the Ki (Adenosine receptor A1) turn out when `N#Cc1c(-c2ccccc2)cc(SCc2ncc[nH]2)nc1N` was run?
**A.** 417 nM

**Q.** What about the Ki (Adenosine receptor A2b) of the same compound?
**A.** 372 nM

**Q.** `N#Cc1c(SCc2ncc[nH]2)nc(N)nc1-c1ccccc1` was tested. Which Ki (Adenosine receptor A1) did it give?
**A.** 69.2 nM

**Q.** What about the Ki (Adenosine receptor A2a [5]) of the same compound?
**A.** 10 nM

**Q.** What about the Activity ([1]; filed as partial agonist) of the same compound?
**A.** 50%

**Q.** And the EC50 (Adenosine receptor A2a [6])?
**A.** 44.7 nM

**Q.** For `Nc1nc(SCc2ncc[nH]2)nc(-c2ccccc2)n1`, which Ki (Adenosine receptor A1) is on record?
**A.** 288 nM

**Q.** What about the Ki (Adenosine receptor A2a [5]) of the same compound?
**A.** 562 nM

**Q.** What about the Activity [1] of the same compound?
**A.** 2%

**Q.** And the EC50 (Adenosine receptor A2a [6])?
**A.** 813 nM
